Results from PMC11206987, “Investigation of the Efficacy of Benzylidene-3-methyl-2-thioxothiazolidin-4-one Analogs with Antioxidant Activities on the Inhibition of Mushroom and Mammal Tyrosinases” (Molecules, 2024).
Read-outs that look alike come from different tables or passages of the source.

Key:
mushroom tyrosinase [1] = assay: Mushroom tyrosinase inhibition assay (dopachrome, 475 nm); type: biochemical; conditions: for IC50: mushroom tyrosinase
Description: The ability of the BMTTZD analogs to inhibit mushroom tyrosinase was evaluated in the presence of L-dopa and L-tyrosine as previously described.

mushroom tyrosinase [2] = molecular target: mushroom tyrosinase (Agaricus bisporus, UniProt C7FF04); assay: Kinetic study of mushroom tyrosinase inhibition (Lineweaver–Burk and Dixon plots); type: biochemical; conditions: substrate L-dopa 0.5–16 mM
Chain of mushroom tyrosinase (Agaricus bisporus, UniProt C7FF04) (C7FF04 1-392): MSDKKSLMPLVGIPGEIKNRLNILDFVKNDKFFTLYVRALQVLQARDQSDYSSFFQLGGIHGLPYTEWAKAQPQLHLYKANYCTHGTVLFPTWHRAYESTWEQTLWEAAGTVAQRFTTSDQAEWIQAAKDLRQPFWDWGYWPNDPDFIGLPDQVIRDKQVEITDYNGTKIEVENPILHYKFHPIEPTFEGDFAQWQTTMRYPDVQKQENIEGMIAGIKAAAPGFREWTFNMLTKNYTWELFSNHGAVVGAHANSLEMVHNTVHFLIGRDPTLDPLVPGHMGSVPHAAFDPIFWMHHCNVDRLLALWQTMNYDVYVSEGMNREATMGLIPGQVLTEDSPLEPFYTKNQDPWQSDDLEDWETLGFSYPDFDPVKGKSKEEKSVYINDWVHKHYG
Description: The initial rate of dopachrome generation was examined at various BMTTZD analog concentrations (0, 1.5, 3, and 6 µM for analog 1; 0, 2, 4, and 8 µM for analogs 2 and 5; and 0, 0.05, 0.1, and 0.2 µM for 3) with 0.5, 1, 2, 4, 8, or 16 mM L-dopa as substrates using mushroom tyrosinase. Plotting the reciprocal of the dopachrome formation rate against the inverse of the L-dopa concentration produced Lineweaver–Burk plots (Figure 2). Each Lineweaver–Burk plot created four straight lines with different slopes. For analogs 1 and 3, the four straight lines met at a point on the y-axis, whereas for analogs 2 and 5, the four straight lines converged at a point in the second quadrant.
The Dixon plots produced lines that met in the second quadrant. The x-coordinate of the convergence position represents the inhibition constant (Ki) of the ligand.
Lineweaver–Burk (L-B) plots were acquired for the kinetic analysis of analogs against mushroom tyrosinase as previously described. In brief, 10 µL of a solution of DMSO and BMTTZD analogs 1–3 or 5 (final concentrations: 0, 1.5, 3, and 6 µM for analog 1; 0, 2, 4, and 8 µM for analogs 2 and 5; and 0, 0.05, 0.1, and 0.2 µM for analog 3) in each well of a 96-well plate was mixed with 20 µL of aqueous mushroom tyrosinase solution (200 units/mL) and 170 µL of an aqueous substrate mixture (various concentrations of L-dopa (final concentrations: 16, 8, 4, 2, 1 and 0.5 mM) and 17.2 mM sodium phosphate buffer (pH 6.5)). During incubation (15 min at 37 °C), the increase in the well absorbance (ΔOD475/min) was calculated at 1 min intervals utilizing a VersaMax® reader.

[3] = ABTS+ radical scavenging activity assay; conditions: 100 µM
Description: Second, the ability of BMTTZD analogs to scavenge ABTS^+ radicals was examined. ABTS^+ radicals were obtained via the oxidation of ABTS using potassium persulfate. All samples (Trolox (positive control) and 1–8) were tested at 100 µM.
The ability of the BMTTZD analogs to scavenge ABTS^+ radicals was assessed as previously described, with minor modifications. To a 50 mL tube were added 20 mL aqueous K2S2O8 solution (2.45 mM) and 20 mL aqueous ABTS solution (7 mM). The combined mixture was placed at 22 °C in a place without light for 17 h to generate the ABTS^+ radicals. For adequate absorbance control (0.70 ± 0.02 at 734 nm), methanol was added to the combined mixture. Test compounds (Trolox and analogs 1–8; 10 µL in 10% DMSO/90% EtOH [v/v] solution) were mixed with 90 µL ABTS^+ radical solution. After storage in a place without light for 2 min, the well absorbance at 734 nm was acquired for 10 min every 1 min by using a microplate reader (VersaMax®). All test compounds were tested at 100 µM. The activity of the analogs was compared to that of Trolox.

[4] = DPPH radical scavenging activity assay; conditions: 500 µM
Description: First, the ability of BMTTZD analogs 1–8 to scavenge DPPH radicals was examined using L-ascorbic acid (vitamin C; positive control). All samples were tested at 500 µM.
The ability of the BMTTZD analogs to scavenge DPPH radicals was evaluated as previously reported. To each well of a 96-well plate containing analogs 1–8 (5 mM in […]; 20 µL) was added a DPPH solution (0.2 mM in methanol; 180 µL). The mixture was kept in a place without light for 30 min at 25°C to generate DPPH radicals. The well absorbance at 517 nm was measured utilizing a VersaMax® reader. The ability of the analogs to remove DPPH radicals was compared to that of vitamin C.

B16F10 cells = assay: Cell cytotoxicity test (EZ-Cytox); type: cell-based, murine; conditions: 2.5–20 µM, 48 and 72 h
Description: Because analogs 1–3 and 5 exerted potent mushroom tyrosinase inhibitory activities, their effects on anti-melanogenic and cellular tyrosinase activities were evaluated in B16F10 murine cells. Prior to examining their cellular activity, their cell viabilities were investigated. Cell viability was evaluated at 48 and 72 h after treatment with five different concentrations of analogs.
The effect on B16F10 cytotoxicity was assessed following a previously described method. Cells (1 × 10^4 cells/well of a 96-well plate) were cultivated for 24 h with 5% CO2 at 37 °C. The cells were exposed to the BMTTZD analogs (test concentrations: 20, 10, 5, 2.5, and 0 µM) and cultivated with 5% CO2 at 37 °C for 72 h. An EZ-Cytox solution (10 µL; EZ-500, DoGenBio, Seoul, Republic of Korea) was exposed to each well, and the plate was cultivated for 2 h. Cell viability was calculated from the well absorbance measured at 450 nm utilizing a reader (VersaMax®).

[5] = In vitro ROS scavenging activity assay (SIN-1, DCFH-DA/esterase); conditions: test sample 40 µM; SIN-1 10 µM
Description: Third, the ability of analogs 1–8 to scavenge in vitro ROS was determined. Esterase was mixed with 2′,7′-dichlorodihydrofluorescein diacetate (DCFH-DA) to produce 2′,7′-dichlorodihydrofluorescein (DCFH). 3-Morpholinosydnonimine (SIN-1) generates ROS that react with DCFH, resulting in the formation of DCF (2′,7′-dichlorofluorescein). Therefore, the ability of analogs 1–8 to scavenge ROS was calculated by measuring the fluorescence of DCF with 10 µM SIN-1 and 40 µM test samples (Trolox (positive control) and analogs 1–8). […] The ability of analogs to scavenge ROS was examined as previously described. To a 15 mL tube were added DCFH-DA solution (1.25 mM; 50 µL), phosphate buffer (50 mM, 4.9 mL), and esterase (600 units/mL; 50 µL). The esterase–DCFH-DA solution was left in a dark place for 30 min. A 10 µL SIN-1 solution was added to each well of a black 96-well plate and mixed with phosphate buffer (180 µL) and Trolox (10 µL) or analogs 1–8 (10 µL). SIN-1, Trolox, and analogs 1–8 were treated at 10, 40, and 40 µM, respectively. After 5 min, 50 µL of the esterase–DCFH-DA solution was added to each well. The well fluorescence of DCF was acquired at 535 nm utilizing a microplate reader (Berthold Advances GmbH & Co., Bad Wildbad, Germany) using a 485 nm excitation wavelength. Trolox was used to compare ROS scavenging activity.

SMILES	tyrosinase inhibition, fold stronger than kojic acid (mushroom tyrosinase [1]; substrate L-dopa)	IC50 (mushroom tyrosinase [1]; substrate L-dopa, read-out: IC50 (Mean ± SEM, µM) L-Dopa)	IC50 (mushroom tyrosinase [1]; substrate L-tyrosine, read-out: IC50 (Mean ± SEM, µM) L-Tyrosine)	type of tyrosinase inhibition (Lineweaver–Burk plots) (mushroom tyrosinase [2])	ABTS^+ radical scavenging activity [3]	DPPH radical scavenging activity [4]	cytotoxicity (cell viability) (B16F10 cells)	effect on SIN-1-induced ROS levels [5]
CN1C(=O)/C(=C/c2ccc(O)c(O)c2)SC1=S [Analog 2, (Z)-5-(3,4-Dihydroxybenzylidene)-3-methyl-2-thioxothiazolidin-4-one]	four times stronger than kojic acid	6.18 ± 0.17 µM	3.77 ± 0.47 µM	mixed-type inhibitors	92%	93%	significant cytotoxicity in a concentration-dependent manner, even at 2.5 µM	
Cc1c(C)c2c(c(C)c1O)CCC(C)(C(=O)O)O2 (stereo not drawn) [Trolox, reference compound]					95%			significantly decreased the SIN-1-induced ROS contents
